The record followed here is the supplement of paper PMC10307832.

Holding throughout (test): relative viability (nuclei count vs DMSO), 5 days (fraction); higher = more cells survive
Compound in the test “Ispinesib + Tozasertib”: Cc1ccc(C(=O)N(CCCN)[C@@H](c2nc3cc(Cl)ccc3c(=O)n2Cc2ccccc2)C(C)C)cc1 [Ispinesib] + Cc1cc(Nc2cc(N3CCN(C)CC3)nc(Sc3ccc(NC(=O)C4CC4)cc3)n2)n[nH]1 [Tozasertib] (partner 0.1 µM)
The essentials: (§1)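 For relative viability, nuclei counts in treated wells were divided by those in vehicle wells. Lung cancer cell lines had been pin-tool dosed in 1536-well plates the day after seeding and cultured for 5 days, then fixed and stained in one step (final 0.05% Triton X-100, 1% formaldehyde, 1 ug/ml Hoechst) and imaged at 4×. Doses were one drug alone or a fixed anchor-drug dose plus five library-drug doses (not always all listed) in √10 steps, and values are duplicate-plate medians.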

Compound in the test “Ispinesib + Trametinib”: Cc1ccc(C(=O)N(CCCN)[C@@H](c2nc3cc(Cl)ccc3c(=O)n2Cc2ccccc2)C(C)C)cc1 [Ispinesib] + CC(=O)Nc1cccc(-n2c(=O)n(C3CC3)c(=O)c3c(Nc4ccc(I)cc4F)n(C)c(=O)c(C)c32)c1 [Trametinib] (partner 0.02 µM)
In outline: as §1

Compound in the test “Linsitinib + Pemetrexed”: C[C@]1(O)C[C@@H](c2nc(-c3ccc4ccc(-c5ccccc5)nc4c3)c3c(N)nccn32)C1 [Linsitinib] + Nc1nc2[nH]cc(CCc3ccc(C(=O)N[C@@H](CCC(=O)O)C(=O)O)cc3)c2c(=O)[nH]1 [Pemetrexed] (partner 0.2 µM)
The essentials:
as §1

Compound in the test “Ispinesib + Palbociclib”: Cc1ccc(C(=O)N(CCCN)[C@@H](c2nc3cc(Cl)ccc3c(=O)n2Cc2ccccc2)C(C)C)cc1 [Ispinesib] + CC(=O)c1c(C)c2cnc(Nc3ccc(N4CCNCC4)cn3)nc2n(C2CCCC2)c1=O [Palbociclib] (partner 0.5 µM)
The essentials:
as §1

For UMC-11, the relative viability turned out to be 0.201 in the test with Ispinesib + Tozasertib (first compound 0.001 µM); 0.201 with Ispinesib + Tozasertib (first compound 0.003162 µM); 0.212 with Ispinesib + Tozasertib (first compound 0.01 µM); 0.189 with Ispinesib + Tozasertib (first compound 0.03162 µM); 0.205 in the test with Ispinesib + Tozasertib (first compound 0.1 µM); 0.685 with Ispinesib + Trametinib (first compound 0.001 µM). Also, the relative viability is 0.701 in the test with Ispinesib + Trametinib (first compound 0.003162 µM); 0.495 with Ispinesib + Trametinib (first compound 0.01 µM); 0.238 in the test with Ispinesib + Trametinib (first compound 0.03162 µM); 0.309 with Ispinesib + Trametinib (first compound 0.1 µM); 0.7 with Linsitinib + Pemetrexed (first compound 0.01 µM); 0.771 in the test with Linsitinib + Pemetrexed (first compound 0.03162 µM). The relative viability was 0.817 in the test with Linsitinib + Pemetrexed (first compound 0.1 µM); 0.597 with Linsitinib + Pemetrexed (first compound 0.3162 µM); 0.776 with Linsitinib + Pemetrexed (first compound 1 µM); 0.336 with Ispinesib + Palbociclib (first compound 0.001 µM); 0.311 with Ispinesib + Palbociclib (first compound 0.003162 µM); 0.309 with Ispinesib + Palbociclib (first compound 0.01 µM). In addition, the figures for the relative viability with Ispinesib + Palbociclib (first compound 0.03162 µM) and in the test with Ispinesib + Palbociclib (first compound 0.1 µM) were 0.217 and 0.237, respectively.
